Literature values as cited in paper PMC6510909 (Investigational New Drugs, 2018).
Like-named read-outs stand apart in the source and are kept apart here.

Assays:
[1] = test system: patients with advanced/metastatic pancreatic cancer; set-up: method as in earlier work; conditions: JANUS-1 interim analysis; P = 0.409; cited from earlier work
[2] = test system: patients with advanced/metastatic pancreatic cancer; set-up: method as in earlier work; conditions: JANUS-2 interim analysis; P = 0.942; cited from earlier work
[3] = test system: patients with metastatic pancreatic cancer that was refractory to gemcitabine; set-up: method as in PMID 26351344; conditions: with capecitabine, cited from earlier work
pancreatic cancer = conditions: nab-P + G group, MPACT trial; cited from earlier work

Compound	HR for OS, ruxolitinib vs placebo [1]	HR for OS, ruxolitinib vs placebo [2]	HR for OS, ruxolitinib vs placebo ([3]; overall study population, P = 0.25)	HR for OS, ruxolitinib vs placebo ([3]; subgroup with C-reactive peptide >13 mg/L, P = 0.011)	Median OS (pancreatic cancer) [months]
N#CC[C@H](C1CCCC1)n1cc(-c2ncnc3[nH]ccc23)cn1 [ruxolitinib]	0.969 [95% CI, 0.75–1.26]	1.584 [95% CI, 0.89–2.83]	0.79 [95% CI, 0.53–1.18]	0.47 [95% CI, 0.26–0.85]	–
albumin-bound paclitaxel + gemcitabine [nab-P + G]	–	–	–	–	8.5
